# Results: the supplement of paper PMC11451515
# Experiments:
# Assay in all cases: AUC of viability dose-response curve (% viability x log10 dose units); higher = less sensitive
# Conditions in all cases: 48 h
# NOMO1 = system: NOMO1
# Procedure, shortened: (§1)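 Leukemia cells adapted to each medium were seeded in 1536-well plates (500 or 1000 cells/well) and given library compounds in DMSO for 48 h at 37°C. The 11 threefold doses spanned 47 μM to 0.79 nM, and CellTiter-Glo One luminescence was normalised per plate to DMSO and cell-free wells before four-parameter log-logistic fitting on log10 dose. Area under the curve was integrated with the trapezoidal rule, scaling curves above full viability and removing curves that failed quality control.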
# P12-Ichikawa = system: P12-Ichikawa
# Procedure, shortened: as §1
# SEM cells = system: SEM cells
# Procedure, shortened: as §1
# [1] = RPMI 5 mM glucose + 10% dialyzed FBS
structure (smiles),measurement,setting,value
C=C1/C(=C\C=C2/CCC[C@]3(C)[C@@H]([C@H](C)/C=C/[C@H](C)C(C)C)CC[C@@H]23)C[C@@H](O)C[C@@H]1O,AUC of viability dose-response curve,NOMO1; HPLM + 10% dialyzed FBS,398
same,AUC of viability dose-response curve,NOMO1; RPMI 5 mM glucose + 10% FBS,423
same,AUC of viability dose-response curve,NOMO1; [1],416
same,AUC of viability dose-response curve,P12-Ichikawa; HPLM + 10% dialyzed FBS,399
same,AUC of viability dose-response curve,P12-Ichikawa; RPMI 5 mM glucose + 10% FBS,404
same,AUC of viability dose-response curve,P12-Ichikawa; [1],408
same,AUC of viability dose-response curve,SEM cells; HPLM + 10% dialyzed FBS,446
same,AUC of viability dose-response curve,SEM cells; RPMI 5 mM glucose + 10% FBS,438
same,AUC of viability dose-response curve,SEM cells; [1],450
